Results reported in patent US20250361281A1, “AMYLIN RECEPTOR (hAMY3R) AGONISTS WITH IMPROVED CHEMICAL STABILITY” (GUBRA A/S, priority 2022, published 2025).
Starred links: 1 amine or outer side, 2 acyl side, 3 side chain; linkers in the order of their positions; H or OH if unused. Positions of bridges follow the written chain, without caps; N, C: chain ends. Non-standard residues stand in square brackets, D forms with d. Residues, ends and D or L forms follow the SMILES beside them. No end group written: not given here. *: point of attachment. C20 diacid = O=C(O)CCCCCCCCCCCCCCCCCCC(=O)*; γGlu = O=C(O)[C@H](CCC(=O)[*:2])N[*:1]; Hyp = O=C(O)[C@@H]1C[C@@H](O)CN1

T1: hAMY3 receptor (Homo sapiens, UniProt O60896+P30988)
T1 construct: monoclonal sub-clone
T1 sequence (P30988 25-474): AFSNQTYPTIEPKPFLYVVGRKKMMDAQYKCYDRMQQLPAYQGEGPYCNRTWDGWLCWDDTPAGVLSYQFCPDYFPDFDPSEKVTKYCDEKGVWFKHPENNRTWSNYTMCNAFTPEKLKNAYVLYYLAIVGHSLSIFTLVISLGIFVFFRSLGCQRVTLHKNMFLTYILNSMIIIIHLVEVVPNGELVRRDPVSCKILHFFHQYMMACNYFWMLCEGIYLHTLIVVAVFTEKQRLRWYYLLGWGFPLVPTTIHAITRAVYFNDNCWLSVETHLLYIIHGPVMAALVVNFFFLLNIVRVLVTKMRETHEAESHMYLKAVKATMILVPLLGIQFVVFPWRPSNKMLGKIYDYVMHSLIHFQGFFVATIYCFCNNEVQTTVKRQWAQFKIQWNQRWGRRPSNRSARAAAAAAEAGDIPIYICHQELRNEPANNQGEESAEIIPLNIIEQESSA
T1 sequence (O60896 24-148 partner): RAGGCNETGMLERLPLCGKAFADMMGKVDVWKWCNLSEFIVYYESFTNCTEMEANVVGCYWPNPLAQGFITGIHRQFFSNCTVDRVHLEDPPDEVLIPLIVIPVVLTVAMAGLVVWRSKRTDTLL

T2: human amylin receptor 3 (hAMY3R) (human, UniProt P30988 25-474; O60896 24-148)
T2 sequence (looked up) 1: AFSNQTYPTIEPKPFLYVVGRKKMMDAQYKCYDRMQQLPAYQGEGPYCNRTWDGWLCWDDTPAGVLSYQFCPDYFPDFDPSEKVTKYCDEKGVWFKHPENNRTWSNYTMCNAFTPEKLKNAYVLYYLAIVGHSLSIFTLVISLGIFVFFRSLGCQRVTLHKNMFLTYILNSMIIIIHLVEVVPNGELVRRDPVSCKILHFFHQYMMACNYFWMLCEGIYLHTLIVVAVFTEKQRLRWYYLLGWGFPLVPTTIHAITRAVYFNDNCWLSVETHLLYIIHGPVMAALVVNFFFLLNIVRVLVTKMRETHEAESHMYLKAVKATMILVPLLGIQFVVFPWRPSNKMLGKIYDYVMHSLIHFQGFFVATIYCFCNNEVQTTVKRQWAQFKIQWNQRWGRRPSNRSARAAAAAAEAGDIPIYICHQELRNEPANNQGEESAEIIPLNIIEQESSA
T2 sequence (looked up) 2: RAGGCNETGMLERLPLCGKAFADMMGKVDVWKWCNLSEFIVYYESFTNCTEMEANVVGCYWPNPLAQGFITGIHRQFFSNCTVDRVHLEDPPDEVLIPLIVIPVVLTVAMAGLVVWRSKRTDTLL


Key:
[1] = Physical stability of peptide analogues (Thioflavin T fibrillation); assay type: physicochemical; details: ThT fluorescence, 40° C., shaking, four days; pH 4 or pH 7 buffer
Description: General Protocols for Determination of Physical Stability of Peptide Analogues
Peptides were dissolved in buffers (50 mM sodium acetate at pH 4 or 50 mM sodium phosphate at pH 7) and incubated for one hour. The samples were then divided into two replicates of 80 μl in a black 384 well plate (μ-clear, Greiner Bio-One) and mixed with Thioflavin T (ThT) to a final concentration of 4 μM. The plate was sealed and placed in a plate reader (CLARIOstar, BMG) where the temperature was set at 40° C. during the course of the experiment. The samples were further stressed by shaking the plate at 700 rpm (linear) for five minutes before every measurement. The fluorescence was measured every 10 min for four days by exciting the ThT at 450 nm and measuring the emission at 480 nm. For each peptide, the ThT signal over time was smoothened using Local Polynomial Regression fitting (LOESS) as implemented in the statistical programming environment R. For the smoothened data, the maximum ThT signal was normalized in percent between the maximum ThT signal for hAMY and the buffer background.

[2] = Determination of deamidation and isomerization (LC-MS); assay type: physicochemical; details: 50 mM phosphate buffer pH 7, 40° C., up to 28 days
Description: General Protocol for Determination of Deamidation and Isomerization
Peptides were dissolved in 50 mM phosphate buffer (pH 7) and incubated at 40° C. for up to 28 days. The samples were then analysed on a Exploris120 mass spectrometer coupled to a Vanquish Tandem UPLC (both Thermo Fisher) equipped with an Acquity BEH C18 column (1.7 um, 2.1×50 mm, 130A, Waters). Peptides were eluted using a linear gradient starting at 5% over 7.5 min to 70% buffer B at a flow rate of 0.4 mL/min (buffer B=100% acetonitrile with 0.1% formic acid; buffer A=100% water with 0.1% formic acid). Data were acquired in data-dependent acquisition mode at a MS1 resolution of 60.000, and a MS2 resolution of 30.000 in positive mode (Top4). Peptides were fragmented with a normalized collision energy of 25%. Deamidation and isomerization were quantified using area under the curve integration.

[3] = Determination of dimer and HMWP formation (size exclusion chromatography); assay type: physicochemical; details: 50 mM phosphate buffer pH 7, 40° C., up to 28 days
Description: General Protocol for Determination of Dimer and HMWP Formation
Peptides were dissolved in 50 mM phosphate buffer (pH 7) and incubated at 40° C. for up to 28 days. The samples were then analysed using size exclusion chromatography analysis to quantify the amount of High Molecular Weight Products (HMWP), which is an overall term for covalently linked peptide dimers, trimers, and higher order multimers. Analyses were carried out on a Dionex Ultimate 3000 RS UHPLC Focused chromatography system (Thermo Scientific) equipped with a Acquity Protein BEH SEC 1.7 μm 4.6×300 mm 125 Å column (Waters part no 186006506). The solvent system consisted of two mobile phases that are assumed to break all non-covalent interactions between peptides leaving only monomeric peptide and covalent HMWP to be analysed. • Mobile phase A (all v/v %): 95% H2O, 5% MeCN (Acetonitrile), 0.1% TFA (Trifluoroacetic acid) • Mobile phase B (all v/v %): 95% MeCN, 5% H2O, 0.1% TFA
The typically load was 1 μl of 1.0 mg/ml, and the detection signal at 215 nm should optimally be between 0.1 and 1.5 abs units. Isocratic elution was done with 60% mobile phase B and a flow of 0.3 ml/min in 20 minutes. Chromatograms were integrated as HMWP (all peaks in front of the main peak) The amount of the various species was reported as area relative to total area in percentage.

hAMY3 receptor = target: T1, hAMY3 receptor; details: previously shown (WO 2022/063925 A1); read-out: hAMY3R EC50; cited from earlier work
hAM1 receptor = target: T3, hAM1 receptor (Homo sapiens, UniProt O60895+Q16602); details: previously shown (WO 2022/063925 A1); read-out: hAM1R EC50; cited from earlier work
T3 construct: monoclonal sub-clone

[4] = previously shown; cited from earlier work
[5] = target: T2, human amylin receptor 3 (hAMY3R); assay: cell-based or functional assay
[6] = target: human adrenomedullin receptor 1 (hAM1R) (human, UniProt Q16602 23-461; O60895 43-175); assay: cell-based or functional assay
human adrenomedullin receptor 1 (hAM1R), sequence (Q16602 23-461, chain 1 of 2): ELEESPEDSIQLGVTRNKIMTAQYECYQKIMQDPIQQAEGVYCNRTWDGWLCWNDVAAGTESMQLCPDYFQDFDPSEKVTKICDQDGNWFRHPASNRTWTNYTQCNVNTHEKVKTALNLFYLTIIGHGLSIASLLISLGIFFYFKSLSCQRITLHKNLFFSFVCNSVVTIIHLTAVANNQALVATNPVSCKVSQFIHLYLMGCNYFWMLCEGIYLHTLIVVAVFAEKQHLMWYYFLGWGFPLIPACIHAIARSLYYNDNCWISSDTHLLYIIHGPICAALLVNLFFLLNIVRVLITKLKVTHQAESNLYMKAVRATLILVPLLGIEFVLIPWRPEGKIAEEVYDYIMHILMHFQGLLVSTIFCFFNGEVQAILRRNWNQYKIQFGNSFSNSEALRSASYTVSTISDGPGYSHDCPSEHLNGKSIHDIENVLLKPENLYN
human adrenomedullin receptor 1 (hAM1R), sequence (O60895 43-175, chain 2 of 2): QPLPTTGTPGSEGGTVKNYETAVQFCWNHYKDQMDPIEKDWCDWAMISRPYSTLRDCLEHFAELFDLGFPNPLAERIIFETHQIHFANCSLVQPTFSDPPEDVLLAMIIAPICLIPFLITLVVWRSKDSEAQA

T3 sequence (Q16602 23-461): as the sequence (Q16602 23-461, chain 1 of 2) above
T3 sequence (O60895 43-175 partner): as the sequence (O60895 43-175, chain 2 of 2) above

Row | Molecule | Fibril formation [1] | Deamidation [2] | Isomerization [2] | Dimerization and HMWP formation [3] | EC50 (hAMY3 receptor) | EC50 (hAM1 receptor) | fibrillation [4] | hAMY3R EC50 (nM), cAMP accumulation [5] | hAM1R EC50 (nM), cAMP accumulation [6]
1 | CC[C@H](C)[C@H](NC(=O)[C@H](CCC(N)=O)NC(=O)[C@H](CCC(=O)O)NC(=O)[C@H](C)NC(=O)[C@H](CC(C)C)NC(=O)[C@H](CCCNC(=N)N)NC(=O)[C@H](CCC(N)=O)NC(=O)[C@@H](NC(=O)[C@@H](NC(=O)[C@@H]1CSSC[C@H](NC(=O)[C@H](CCCCN)NC(=O)CC[C@H](NC(=O)CCCCCCCCCCCCCCCCCCC(=O)O)C(=O)O)C(=O)N[C@@H](CC(N)=O)C(=O)N[C@@H]([C@@H](C)O)C(=O)N[C@@H](C)C(=O)N[C@@H]([C@@H](C)O)C(=O)N1)[C@@H](C)O)C(C)C)C(=O)N[C@@H](C)C(=O)N[C@@H](CCC(N)=O)C(=O)N[C@@H](Cc1ccccc1)C(=O)N[C@H](C(=O)N[C@@H](CC(=O)O)C(=O)N[C@@H](CCCCN)C(=O)N[C@@H](CC(=O)O)C(=O)N[C@@H](CCCCN)C(=O)N[C@@H](CC(=O)O)C(=O)N[C@@H](CC(N)=O)C(=O)N[C@H](C(=O)N[C@@H](C)C(=O)N1CCC[C@H]1C(=O)N1CCC[C@H]1C(=O)N[C@H](C(=O)N[C@@H](CC(N)=O)C(=O)N[C@H](C(=O)NCC(=O)N[C@@H](CO)C(=O)N[C@@H](CC(N)=O)C(=O)NCC(=O)N1C[C@H](O)C[C@H]1C(N)=O)C(C)C)[C@@H](C)O)C(C)C)[C@@H](C)O [SEQ ID NO: 3] ({C20 diacid-γGlu}-KCNTATCTVQRLAEQIAQFTDKDKDNVAPPTNVGSNG[Hyp]-NH2; disulfide 2-7) | No | 97% | 5% | 12% | 14 nM | > 5000 nM | no fibrillation |  | 
2 | KCNTATCATQRLANFLVHSSNNFGAILSSTNVGSNTY-NH2 (disulfide 2-7) [human amylin hAMY1-37] |  |  |  |  |  |  |  | 0.01 nM | > 5000 nM
3 | {C20 diacid-γGlu}-KCNTATCTVQRLAEQIAQFTDKDKDNVAPPTNVGSNG[Hyp] (disulfide 2-7; also: C-terminal generally amidated (-CONH2) per the definitions) [reference polypeptide KCNTATCTVQRLAEQIAQFTDKDKDNVAPPTNVGSNG[Hyp] (SEQ ID NO: 3)] |  |  |  |  |  |  |  | 0.014 nM | > 5000 nM
4 | {C20 diacid-γGlu}-KCLTATCTVARLAEQIAQFTDKDKENVAPPTAVGSAG[Hyp] (bridge 2-7 via ‑S‑CH2‑S‑; also: C-terminal generally amidated (-CONH2) per the definitions) [polypeptide KCLTATCTVARLAEQIAQFTDKDKENVAPPTAVGSAG[Hyp] (SEQ ID NO: 4)] |  |  |  |  |  |  |  | 0.009 nM | > 5000 nM
